Legend:
Type in all cases: in vivo
[1] = system: sandbur (Cenchrus echinatus); test: Test E pre-/postemergence/post directed; conditions: PREEMERGENCE
Text: (§1) Seeds, tubers, or plant parts of alexandergrass (Brachiaria plantaginea), annual bluegrass (Poa annua), arrowleaf sida (Sida rhombifolia), barnyardgrass (Echinochloa crus-galli), bermudagrass (Cynodon dactylon), citrus (Citrus sinensis), common chickweed (Stellaria media), common purslane (Portulaca oleracea), common ragweed (Ambrosia elatior), common groundsel (Senecio vulgaris), dallisgrass (Paspalum dilatatum), goosegrass (Eleusine indica), green foxtail (Setaria viridis), guineagrass (Panicum maximum), itchgrass (Rottboellia exaltata), johnson grass (Sorghum halepense), kochia (Kochia scoparia), large crabgrass (Digitaria sanguinalis), leafy spurge (Euphorbia esula), pitted morningglory (Ipomoea lacunosa), purple nutsedge (Cyperus rotundus), quackgrass (Agropyron repens), Russian thistle (Salsola kali), sandbur (Cenchrus echinatus), sourgrass (Trichachne insularis), Spanishneedles (Bidens bipinnata), sugarcane (Saccharum officinarum), surinam grass (Brachiaria decumbens) and tall mallow (Malva sylvestris) were planted into greenhouse pots of flats containing greenhouse planting medium. Plant species were grown grown in separate pots or individual compartments. Preemergence applications were made within one day of planting the seed or plant part. Postemergence applications were applied when the plants were in the two to four leaf stage (three to twenty cm).
(§2) Test chemicals were formulated in a non-phytotoxic solvent mixture which included a surfactant and applied preemergence to the soil surface, postemergence to the plants or as a post directed spray to plants and soil at the base of the target species. Untreated control plants and treated plants were placed in the greenhouse and visually evaluated for injury 13 to 21 days after herbicide application. Plant response ratings, summarized in Table E, are based on a 0 to 100 scale where 0 is no injury and 100 is complete control. A dash (−) response means no test result.

[2] = system: johnson grass (Sorghum halepense); test: Test E pre-/postemergence/post directed; conditions: PREEMERGENCE
Text: as §1, §2

[3] = system: alexandergrass (Brachiaria plantaginea); test: Test E pre-/postemergence/post directed; conditions: PREEMERGENCE
Text: as §1, §2

[4] = system: surinam grass (Brachiaria decumbens); test: Test E pre-/postemergence/post directed; conditions: PREEMERGENCE
Text: as §1, §2

[5] = system: common groundsel (Senecio vulgaris); test: Test E pre-/postemergence/post directed; conditions: PREEMERGENCE, Rate 32 g/ha
Text: as §1, §2

[6] = system: large crabgrass (Digitaria sanguinalis); test: Test E pre-/postemergence/post directed; conditions: PREEMERGENCE
Text: as §1, §2

[7] = system: common ragweed (Ambrosia elatior); test: Test E pre-/postemergence/post directed; conditions: PREEMERGENCE
Text: as §1, §2

[8] = system: Spanishneedles (Bidens bipinnata); test: Test E pre-/postemergence/post directed; conditions: PREEMERGENCE
Text: as §1, §2

[9] = system: itchgrass (Rottboellia exaltata); test: Test E pre-/postemergence/post directed; conditions: PREEMERGENCE
Text: as §1, §2

[10] = system: bermudagrass (Cynodon dactylon); test: Test E pre-/postemergence/post directed; conditions: PREEMERGENCE
Text: as §1, §2

[11] = system: pitted morningglory (Ipomoea lacunosa); test: Test E pre-/postemergence/post directed; conditions: PREEMERGENCE
Text: as §1, §2

[12] = system: soybean (Glycine max); test: Test C; set-up: key: 0 was no effect; 100 was complete control; conditions: PREEMERGENCE
[13] = system: ivyleaf morningglory (Ipomoea hederacea); test: Test C; set-up: key: 0 was no effect; 100 was complete control; conditions: PREEMERGENCE
[14] = system: hairy beggarticks (Bidens pilosa); test: Test C; set-up: key: 0 was no effect; 100 was complete control; conditions: PREEMERGENCE
[15] = system: large crabgrass (Digitaria sanguinalis); test: Test C; set-up: key: 0 was no effect; 100 was complete control; conditions: PREEMERGENCE
[16] = system: cocklebur (Xanthium strumarium); test: Test C; set-up: key: 0 was no effect; 100 was complete control; conditions: PREEMERGENCE
[17] = system: purple nutsedge (Cyperus rotundus); test: Test C; set-up: key: 0 was no effect; 100 was complete control; conditions: PREEMERGENCE
[18] = system: sandbur (Cenchrus echinatus); test: Test E pre-/postemergence/post directed; set-up: key: 0 is no injury; 100 is complete control; conditions: PREEMERGENCE, Rate 32 g/ha
Text: as §1, §2

[19] = system: purple nutsedge (Cyperus rotundus); test: Test E pre-/postemergence/post directed; set-up: key: 0 is no injury; 100 is complete control; conditions: PREEMERGENCE
Text: as §1, §2

[20] = system: corn (Zea mays); test: Test C; conditions: PREEMERGENCE
[21] = system: arrowleaf sida (Sida rhombifolia); test: Test C; set-up: key: 0 was no effect; 100 was complete control; conditions: PREEMERGENCE

Cc1cnc(-n2ccc(C(F)(F)F)n2)nc1Cc1cccc(OC(F)(F)F)c1 [Compound 42]
Plant response rating, Sandbur ([1]; Rate 64 g/ha): 40 | Plant response rating, Sandbur ([1]; Rate 125 g/ha): 70 | Plant response rating, Sandbur ([1]; Rate 250 g/ha): 70 | Plant response rating, Johnsongrass ([2]; Rate 32 g/ha): 10 | Plant response rating, Johnsongrass ([2]; Rate 64 g/ha): 90 | Plant response rating, Johnsongrass ([2]; Rate 125 g/ha): 90 | Plant response rating, Johnsongrass ([2]; Rate 250 g/ha): 95 | Plant response rating, Alexandergrass ([3]; Rate 32 g/ha): 20 | Plant response rating, Alexandergrass ([3]; Rate 64 g/ha): 40 | Plant response rating, Alexandergrass ([3]; Rate 125 g/ha): 90 | Plant response rating, Alexandergrass ([3]; Rate 250 g/ha): 90 | Plant response rating, Surinam grass ([4]; Rate 32 g/ha): 40 | Plant response rating, Surinam grass ([4]; Rate 64 g/ha): 50 | Plant response rating, Com. groundsel [5]: 90 | Plant response rating, Large crabgrass ([6]; Rate 32 g/ha): 50 | Plant response rating, Large crabgrass ([6]; Rate 64 g/ha): 90 | Plant response rating, Com. ragweed ([7]; Rate 32 g/ha): 50 | Plant response rating, Com. ragweed ([7]; Rate 64 g/ha): 75 | Plant response rating, Com. ragweed ([7]; Rate 125 g/ha): 90 | Plant response rating, Com. ragweed ([7]; Rate 250 g/ha): 90 | Plant response rating, Spanishneedles ([8]; Rate 32 g/ha): 20 | Plant response rating, Spanishneedles ([8]; Rate 64 g/ha): 20 | Plant response rating, Spanishneedles ([8]; Rate 250 g/ha): 90 | Plant response rating, Itchgrass ([9]; Rate 32 g/ha): 35 | Plant response rating, Itchgrass ([9]; Rate 64 g/ha): 65 | Plant response rating, Itchgrass ([9]; Rate 125 g/ha): 80 | Plant response rating, Itchgrass ([9]; Rate 250 g/ha): 70 | Plant response rating, Bermudagrass ([10]; Rate 32 g/ha): 90 | Plant response rating, Bermudagrass ([10]; Rate 64 g/ha): 95 | Plant response rating, Bermudagrass ([10]; Rate 125 g/ha): 98 | Plant response rating, Bermudagrass ([10]; Rate 250 g/ha): 98 | Plant response rating, P. morninglory ([11]; Rate 64 g/ha): 30 | Plant response rating, P. morninglory ([11]; Rate 125 g/ha): 65 | Plant response rating, P. morninglory ([11]; Rate 250 g/ha): 75 | Plant response rating, Soybean ([12]; Rate 35 g/ha): 0 | Plant response rating, Soybean ([12]; Rate 70 g/ha): 5 | Plant response rating, Soybean ([12]; Rate 140 g/ha): 35 | Plant response rating, I. morningglory ([13]; Rate 35 g/ha): 30 | Plant response rating, I. morningglory ([13]; Rate 70 g/ha): 70 | Plant response rating, I. morningglory ([13]; Rate 140 g/ha): 100 | Plant response rating, H. beggarticks ([14]; Rate 35 g/ha): 0 | Plant response rating, H. beggarticks ([14]; Rate 140 g/ha): 90 | Plant response rating, Large crabgrass ([15]; Rate 35 g/ha): 80 | Plant response rating, Large crabgrass ([15]; Rate 70 g/ha): 100 | Plant response rating, Large crabgrass ([15]; Rate 140 g/ha): 100 | Plant response rating, Cocklebur ([16]; Rate 35 g/ha): 0 | Plant response rating, Cocklebur ([16]; Rate 140 g/ha): 60 | Plant response rating, Purple nutsedge ([17]; Rate 35 g/ha): 0 | Plant response rating, Purple nutsedge ([17]; Rate 70 g/ha): 0 | Plant response rating, Purple nutsedge ([17]; Rate 140 g/ha): 0 | Plant response rating, Sandbur [18]: 0 | Plant response rating, Purple nutsedge ([19]; Rate 32 g/ha): 20 | Plant response rating, Purple nutsedge ([19]; Rate 64 g/ha): 30 | Plant response rating, Purple nutsedge ([19]; Rate 125 g/ha): 30 | Plant response rating, Purple nutsedge ([19]; Rate 250 g/ha): 30 | Plant response rating, Corn ([20]; Rate 35 g/ha): 5 | Plant response rating, Corn ([20]; Rate 70 g/ha): 5 | Plant response rating, Corn ([20]; Rate 140 g/ha): 5 | Plant response rating, Arrowleaf sida ([21]; Rate 35 g/ha): 95 | Plant response rating, Arrowleaf sida ([21]; Rate 70 g/ha): 95 | Plant response rating, Arrowleaf sida ([21]; Rate 140 g/ha): 100
